Literature values as cited in patent publication US20220175791A1, “Methods for Predicting Neisseria Spp. Susceptibility to Cefixime” (priority 2019, published 2022).

C=CC1=C(C(=O)O)N2C(=O)[C@@H](NC(=O)/C(=N\OCC(=O)O)c3csc(N)n3)[C@H]2SC1 [cefixime, Cefixime]
tolerability (even in penicillin allergic patients): very well tolerated | bioavailability (human, in vivo, po): high
